From US20060147456A1, “Induction of apoptosis in toll-like receptor expressing tumor cells” (priority 2004, published 2006)

How the values were obtained:
Cama-1 cells = assay: Apoptosis by annexin V staining and flow cytometry; assay type: cell-based, human
Procedure: (§1) Cell recovery after treatment with TLR ligands was measured by crystal violet staining (Sigma-Aldrich). Cells were plated at 10^4 cells/well in 96 well plates. After 72 hours of culture either with or without TLR ligand, the cells were washed with PBS, fixed in 6% formaldehyde (Sigma-Aldrich) for 20 minutes, washed twice, and then stained with 0.1% crystal violet for 10 minutes. After washes and incubation in 1% SDS for 1 hour, the absorbance was read at 605 nm on a Vmax plate reader (Molecular Devices, Sunnyvale, Calif.). Annexin V staining was performed with an annexin-FITC apoptosis detection kit (BD Pharmingen, San Diego, Calif.) according to the manufacturer's instructions. Sub-diploid cells were detected by staining with 3 μg/mL propidium iodide (PI) (Molecular probes, Eugene, Oreg.), after overnight permeabilization in 70% ethanol. Fluorescence was analyzed by flow cytometry on a FACScalibur (Becton Dickinson, Mountain View, Calif.) equipped with a doublet-discrimination module and using Celiquest Pro software (Becton Dickinson).
Cama-1 cells were plated in 6 well plates at 3×10^5 cells per well. After overnight adherence, siRNA transfections were performed for 5 hours in OptiMEM medium (Life technologies) containing 3 μg/mL lipofectamine 2000 (Invivogen) and 100 nM siRNA. Cells were then washed and cultured for 72 hours in complete medium before treatment with Poly IC and apoptosis analysis. siRNA duplexes specific for TLR3, PKR, IRAK-4, TRAF6 and p65 were purchased from Dharmacon (Lafayette, Colo.) as SMART-Pools. TRIF siRNA was purchased from the same supplier as single oligoduplexes (5′-GCUCUUGUAUCUGMGCAC-3′) (SEQ ID NO: 23). TLR3 and TRIF expression was assessed by PCR (35 cycles: 1 min 94° C., 1 min 55° C., 2 min 72° C.) with Taq PCR ReadyMix (Sigma-Aldrich) using following primers: […]
To further investigate the effect of Poly IC treatment on breast tumor cell lines, cell death was analyzed in Cama-1 cells by annexin V staining. Cells were cultured for 24 hours either with or without 5 μg/ml of Poly IC. Apoptosis was measured by annexin V staining and flow cytometry.
We also tried to determine the kinetics of Poly IC induced apoptosis. Cama-1 cells were cultured either with or without 5 μg/ml or 50 ng/ml of Poly IC. The percentage of apoptotic (annexin positive) cells in the culture were measured during the following 30 hours. […] Specifically, Poly IC triggered apoptosis in Cama-1 cells beginning 9 hours after Poly IC addition and reaching up to 80% apoptotic cells after 30 hours of treatment.
Poly AU was analyzed for its effects on apoptosis. Cama-1 cells were cultured for 48 hours either with PBS or with increasing concentrations of Poly AU ranging from 5 ng/ml to 50 μg/ml. Apoptosis was analyzed by measuring the percentage of annexin V positive cells.
In order to determine the pathway of Poly IC induced Cama-1 cell toxicity, RNA interference was used to efficiently downregulate expression of TRIF and PKR. Cama-1 cells were plated in 6 well plates at 3×10^5 cells per well. After overnight adherence, siRNA transfections were performed for 5 hours in OptiMEM medium (Life technologies) containing 3 μg/mL lipofectamine 2000 (Invivogen) and 100 nM siRNA. Cells were transfected with either MOCK (water), control scrambled duplex (scr) siRNA, TRIF siRNA or PKR siRNA.
72 hours after siRNA transfection, Cama-1 cells were cultured for another 24 hours either with or without 5 μg/ml Poly IC. Apoptosis was measured by annexin V staining and expressed as a percentage of apoptotic cells in culture. On average, 10% of control cells (MOCK and scr) that were untreated underwent apoptosis. In contrast, about 75% of control cells (MOCK and scr) that were treated with Poly IC underwent apoptosis.
To further investigate TLR3 mediated cytotoxicity, the involvement of the signaling molecules IRAK4 and TRAF6, both downstream mediators of TLR signaling, were assessed. Cama-1 cells were plated in 6 well plates at 3×10^5 cells per well. […]

[1] = tested on: Cama-1, SW527, BT483 and MCF-7; assay: Cell recovery by crystal violet staining, four breast tumor cell lines together; assay type: cell-based, human; settings: 72 h; 5 μg/ml PGN, 50 μg/ml Poly IC or 10 μg/ml LPS; average of the four cell lines
Procedure: as §1
Four human breast tumor cell lines, Cama-1, SW527, BT483 and MCF-7, were analyzed for cell death in response to Poly IC. Cells were cultured for 72 hours with 5 μg/ml PGN, 50 μg/ml Poly IC or 10 μg/ml LPS. Control cells were cultured with PBS. Cytotoxicity was assessed by crystal violet staining and expressed as a percent of control.
Furthermore, additional TLR ligands were tested to determine any possible effects on cellular toxicity. The ligands tested were PGN, LPS, Flagellin, R848 and CpG. Cells were cultured for 72 hours with 5 μg/ml PGN, 10 μg/ml LPS, 50 ng/ml flagellin, 6 μg/ml R848, 10 μg/ml CpG ODNs, or with PBS as control. Cell recovery was assessed by crystal violet staining and expressed as a percent of control.

polyinosinic-polycytidylic acid [Poly IC]
apoptotic (annexin positive) cells after 30 hours (Cama-1 cells; Cama-1, 5 μg/ml or 50 ng/ml Poly IC, untreated 15%): 80%
percentage of apoptotic cells (Cama-1 cells; Cama-1, 25 μM z-VAD-fmk pre-incubation 1 h, 24 h, 5 μg/ml Poly IC or 25 ng/ml TNF-α): 30%
cells stained by Annexin V (Cama-1 cells; Cama-1, 24 h, 5 μg/ml Poly IC): over 70%
percentage of apoptotic cells (Cama-1 cells; Cama-1, DMSO pre-incubation 1 h, 24 h, 5 μg/ml Poly IC or 25 ng/ml TNF-α): 70%
percentage of apoptotic cells (Cama-1 cells; Cama-1, absence of antibody (Example 11), 24 h, 5 μg/ml Poly IC or 1000 U/ml each IFN-α/IFN-β): 70%
percentage of apoptotic cells (Cama-1 cells; Cama-1, absence of antibody (Example 12), 5 μg/ml Poly IC or 25 ng/ml TNF-α): 70%
beginning of apoptosis after Poly IC addition (Cama-1 cells; Cama-1, kinetics over 30 hours): 9 h
percentage of apoptotic cells (Cama-1 cells; Cama-1, pre-incubated 1 h with 20 μg/ml anti-IFN R1 mAb, 24 h, 5 μg/ml Poly IC or 1000 U/ml IFN-α/IFN-β): 30%
percentage of apoptotic cells (Cama-1 cells; Cama-1, pre-incubated 1 h with 20 μg/ml isotype control mouse IgG1, 24 h, 5 μg/ml Poly IC or 1000 U/ml IFN-α/IFN-β): 70%
percentage of apoptotic cells (Cama-1 cells; Cama-1, pre-incubated with 10 μg/ml CHX, 5 μg/ml Poly IC or 25 ng/ml TNF-α, untreated 15%): 40%
percentage of apoptotic cells (Cama-1 cells; Cama-1, pre-incubated with 20 μg/ml neutralizing anti TNF-α mAb, 5 μg/ml Poly IC or 25 ng/ml TNF-α): 65%
percentage of apoptotic cells (Cama-1 cells; Cama-1 control cells (MOCK and scr), 24 h with 5 μg/ml Poly IC, untreated 10%): about 75%
percentage of apoptotic cells (Cama-1 cells; Cama-1 control cells (scr), Example 10, 24 h with 5 μg/ml Poly IC, untreated 10%): about 75%
percentage of apoptotic cells (Cama-1 cells; Cama-1 scr group, 24 h, Poly IC 50 ng/ml): 20%
percentage of apoptotic cells (Cama-1 cells; Cama-1 scr group, 24 h, Poly IC 5 μg/ml): 70%
percentage of apoptotic cells (Cama-1 cells; Cama-1 siRNA p65 group, 24 h, Poly IC 50 ng/ml): 10%
percentage of apoptotic cells (Cama-1 cells; Cama-1 siRNA p65 group, 24 h, Poly IC 5 μg/ml): 20%
cell recovery, percent of control, on average [1]: 67.5%
